This is an account of results in patent publication US20050107616A1, “Alpha-ketoamide derivatives as cathepsin k inhibitors” (priority 2001, published 2005).

The target in assay [1] is human cathepsin V (Homo sapiens, UniProt O60911). In words: Cathepsin V inhibition assay, fluorogenic substrate Cbz-Phe-Arg-AMC. The assay is classed as biochemical. As to conditions: Table 2; human recombinant enzyme, pH 5.5, 30° C., 2 μM substrate; read-out: hCat V Ki. The procedure: All assays for cathepsin K were carried out with human and rat recombinant enzyme. Assays for cathepsins S Et V were also carried out with human recombinant enzyme. Assays for human cathepsins B. H. and L were carried out with enzyme, purchased from Athens Research and Technology, Inc., prepared from human liver tissue. Standard assay conditions for the determination of kinetic constants used a fluorogenic peptide substrate, typically (5S,8S)-13-amino-5-benzyl-13-imino-3-methylene-N-(4methyl-2-oxo-2H-chromen-7-yl)-6-oxo-1-phenyl-2-oxa-4,7,12-triazatridecane-8-carboxamide (Cbz-Phe-Arg-AMC), and were determined in 100 mM sodium acetate at pH 5.5 containing 10 mM dithiothreitol and 120 mM sodium chloride. A stock substrate solution of Cbz-Phe-Arg-AMC was prepared at a concentration of 50 mM in dimethyl sulfoxide. This substrate was diluted into the assay for a final substrate concentration of 10 μM in the rat cathepsin K, human cathepsin K, and human cathepsin B assays; a final substrate concentration of 5 μM in the human cathepsin L assay; and a final substrate concentration of 2 μM in the human cathepsin V assay.
All assays contained 10% dimethyl sulfoxide. […] All assays were conducted at 30° C. Product fluorescence (excitation at 360 nm; emission at 440 nm, (except cathepsin H which used excitation at 340 nm; emission at 420 nm)) was monitored with a PerSeptive Biosystems Cytofluor II fluorescence plate reader. Product progress curves were generated over 2.3 h monitoring the formation of 7-amino-4-methylcoumarin product (or β-naphthalamide for cathepsin H).
Potential inhibitors were evaluated using the progress curve method. Assays were carried out in the presence of variable concentrations of test compound. Reactions were initiated by addition of buffered solutions of inhibitor and substrate to enzyme. Data analysis was conducted according to one of two procedures depending on the appearance of the progress curves in the presence of inhibitors. For those compounds whose progress curves were linear, the enzymatic activity (RATE) was plotted against the concentration of test compound, including inhibitor concentration of zero ([I]=0), and the IC50 determined from a fit of equation 1 to the data, RATE=Vmax/(1+([I]/IC50)) (1) where Vmax is the best fit estimate of the maximal enzymatic activity. Ki values were calculated from IC50 values using equation 2 assuming a competitive model. [formula]

In assay [2] the target is T1, human cathepsin K (Homo sapiens, UniProt P43235).
T1 construct: The proform of cathepsin K was converted to mature cathepsin K by brief exposure to pH 4; made in house; host or cells: baculovirus; Trichoplusia ni High Five cells (virus raised in Sf-9)
T1 sequence (P43235 115-329): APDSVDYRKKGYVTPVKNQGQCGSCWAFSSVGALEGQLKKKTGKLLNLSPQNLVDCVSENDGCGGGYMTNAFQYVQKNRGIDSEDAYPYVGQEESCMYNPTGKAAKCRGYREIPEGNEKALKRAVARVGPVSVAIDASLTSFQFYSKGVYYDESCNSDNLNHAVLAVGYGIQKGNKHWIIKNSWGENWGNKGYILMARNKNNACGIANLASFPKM
Briefly: Cathepsin K inhibition assay, fluorogenic substrate Cbz-Phe-Arg-AMC, progress curve method. The assay is classed as biochemical. The conditions noted are these: human recombinant enzyme, pH 5.5, 30° C., 10 μM substrate, read-out: hCat K Ki. The procedure, abridged: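 Recombinant human cathepsin K from insect cells, made mature by pH 4/L-cysteine activation, was assayed with 10 μM Cbz-Phe-Arg-AMC in 10% DMSO at 30° C. […]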

Like-named read-outs stand apart in the source and are kept apart here.

human cathepsin V, sequence (O60911 114-334): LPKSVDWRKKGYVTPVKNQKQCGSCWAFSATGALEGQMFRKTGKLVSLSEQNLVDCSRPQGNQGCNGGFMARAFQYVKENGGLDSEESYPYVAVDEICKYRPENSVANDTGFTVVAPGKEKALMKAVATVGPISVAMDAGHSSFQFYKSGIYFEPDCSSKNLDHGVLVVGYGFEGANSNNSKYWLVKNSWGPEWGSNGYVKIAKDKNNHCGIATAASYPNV

As usually defined, the Ki is the equilibrium dissociation constant of an inhibitor or competing ligand from its target. `CCCC[C@H](NC(=O)O[C@H](Cn1cnc2cc(Cl)c(Cl)cc21)C(C)(C)C)C(=O)C(=O)Nc1ccn[nH]1` [Example 37, (1S)-1-[(5,6-dichloro-1H-benzimidazol-1-yl)methyl]-2,2-dimethylpropyl(1S)-1-[oxo(1H-pyrazol-5-ylamino)acetyl]pentylcarbamate]: the Ki in assay [1], in assay [2] (Table 1) and in assay [2] (Table 2) was 0.01 to 1 nM throughout.
Turning to `CCCC[C@H](NC(=O)O[C@H](Cn1cnc(-c2ccc(C(F)(F)F)cc2)c1)C(C)(C)C)C(=O)C(=O)Nc1ccnn1C1CCC1` [Example 35, (1S)-2,2-dimethyl-1-({4-[4-(trifluoromethyl)phenyl]-1H-imidazol-1-yl}methyl)propyl(1S)-1-[[(1-cyclobutyl-1H-pyrazol-5-yl)amino](oxo)acetyl]pentylcarbamate], the inhibition constant (Ki) in assay [1], in assay [2] (Table 1) and in assay [2] (Table 2) was 1 to 100 nM in each case.
Regarding `CCCC[C@H](NC(=O)O[C@H](c1nnc(-c2ccc(C(F)(F)F)cc2)o1)C(C)(C)C)C(=O)C(=O)Nc1ccn[nH]1` [Example 38, (1S)-2,2-dimethyl-1-{5-[4-(trifluoromethyl)phenyl]-1,3,4-oxadiazol-2-yl}propyl(1S)-1-[oxo(1H-pyrazol-5-ylamino)acetyl]pentylcarbamate], the inhibition constant (Ki) lay within 1 to 100 nM in assay [1], 0.01 to 1 nM in assay [2] (Table 1) and 0.01 to 1 nM in assay [2] (Table 2).
In the case of `CCCC[C@H](NC(=O)O[C@H](Cc1nnc(-c2ccc(F)cc2)o1)C(C)(C)C)C(=O)C(=O)Nc1ccnn1C` (stereo in doubt) [Example 22, (1R)-1-{[5-(4-fluorophenyl)-1,3,4-oxadiazol-2-yl]methyl}-2,2-dimethylpropyl(1S)-1-[[(1-methyl-1H-pyrazol-5-yl)amino](oxo)acetyl]pentyl carbamate], the Ki fell in the range of 100 to 10000 nM in assay [1], 1 to 100 nM in assay [2] (Table 1) and 1 to 100 nM in assay [2] (Table 2).
With `CCCC[C@H](NC(=O)O[C@H](Cn1cnc(-c2ccc(C(F)(F)F)cc2)c1)C(C)(C)C)C(=O)C(=O)Nc1ccn[nH]1` [Example 7, (1S)-2,2-dimethyl-1-({4-[4-(trifluoromethyl)phenyl]-1H-imidazol-1-yl}methyl)propyl(1S)-1-[oxo(1H-pyrazol-5-ylamino)acetyl]pentylcarbamate], the Ki in assay [1], in assay [2] (Table 1) and in assay [2] (Table 2) was 0.01 to 1 nM each time.
Regarding `CCCC[C@H](NC(=O)O[C@H](Cn1ccc(-c2ccc(C(F)(F)F)cc2)n1)C(C)(C)C)C(=O)C(=O)Nc1ccn[nH]1` [Example 1], the Ki in assay [1], in assay [2] (Table 1) and in assay [2] (Table 2) was 0.01 to 1 nM each time.
Take `CCCC[C@H](NC(=O)O[C@H](c1nnc(-c2ccc(C(F)(F)F)cc2)o1)C(C)(C)C)C(=O)C(=O)NN1CCOC1=O` [Example 39, (1S)-2,2-dimethyl-1-{5-[4-(trifluoromethyl)phenyl]-1,3,4-oxadiazol-2-yl}propyl(1S)-1-{oxo[(2-oxo-1,3-oxazolidin-3-yl)amino]acetyl}pentylcarbamate]: the results for the inhibition constant (Ki) in assay [1], in assay [2] (Table 1) and in assay [2] (Table 2) were 1 to 100 nM, 0.01 to 1 nM and 0.01 to 1 nM, respectively.
